Patent US12509727B2, “Composition for diagnosis of Sjögren's syndrome” (THE CATHOLIC UNIVERSITY OF KOREA INDUSTRY-ACADEMIC …, priority 2017, dated 2025)

What was measured:
Format in all cases: in vivo, human
ATG5 protein = assay: Western blotting of tears, relative concentration measurement, after corticosteroid treatment; details: tears of SS DE patients; level before treatment 5.06±0.31; statistically significantly decreased
Method: (§1) Tears were collected from the Schirmer strips which absorbed the tear fluid as in Example 1. In order to extract tears, the Schirmer strips were placed in tubes containing extraction buffer (NaCl 0.5 M, Tween 20 0.5% in PBS). After one hour, the strips were transferred to a 0.5 ml tube with a hole at the bottom thereof using a cannula. The tube was inserted into a larger tube (1.5 ml). It was centrifuged at 12,000 rpm for 15 minutes. The centrifugal force caused the fluid to be drawn from the strip. Thus, the tear fluid passed through the center hole at the bottom of the small tube and was collected into the external 1.5 ml tube. The tear fluid was mixed with the sample-loading buffer, heated for 10 minutes, and centrifuged. Then, the protein concentration in the clear isolate was determined by using the BCA protein assay kit (Thermo Fisher Scientific, Rockford, IL). […] The improved chemical luminescence reagent (ECL; Amersham Biosciences, Sweden) was used to detect the protein band. […]
(§2) After applying topical corticosteroids to Sjögren's syndrome dry eye patients, change in the clinical parameters was assessed as well as autodigestion marker expression. After one month with topical corticosteroid therapy with artificial tears, OSDI score, Schirmer I value, TBUT, corneal staining, conjunctival staining, and OSS score were measured as in Example 1. […]

LC3B-II/I protein ratio = assay: as above; details: tears of SS DE patients; level before treatment 1.87±0.10; statistically significantly decreased
Method: as §1, §2

[1] = test system: Sjögren's syndrome dry eye patients; assay: Clinical evaluation of ocular surface parameters before and after topical corticosteroid treatment; details: SS DE patients, after one month topical corticosteroid with artificial tears, mean ± SD
Method: […] participated in this Example (FIG. 1): 40 patients with Sjögren's syndrome dry eye (SS DE) (78 eyes), 24 patients with non-Sjögren's syndrome dry eye (non-SS DE) (48 eyes), and 16 normal healthy subjects as controls (25 eyes). 16 patients of the 40 patients with Sjögren's syndrome dry eye were treated with topical corticosteroid (4 times per one day for 1 month, 0.1% fluoromeladone, Sam-II Pharmaceutics Co. Seoul, Korea). […] All patients with Sjögren's syndrome dry eye were diagnosed with primary Sjögren's syndrome by a rheumatologist according to the 2012 Sjögren's International Collaborative Clinical Alliance (SICCA) classification criteria. This study excluded Sjögren's syndrome patients or subjects who had been treated with disease-modifying therapies. Due to the unique prevalence of females and males found in Sjögren's syndrome (F:M=9:1), only female patients participated in the study for the prevention of the data misinterpretation. Exclusion criteria were pregnant women, nurses, contact lens wearers, tear point closure patients, persons with eye surgery within 6 months, persons with acute or chronic eye disease other than dry eye syndrome, persons with concomitant allergies, persons with eyelid abnormalities, persons with Grade 2 or higher dysfunction of the meibomian gland. This study also excluded, as a subject, persons who had received other systemic treatments or other topical treatments other than artificial tears within the past 3 months.
The following ocular surface examinations were conducted on the 82 subjects; Schirmer I test, tear film breakup time (TBUT), ocular surface staining (OSS) score, and ocular surface disease index (OSDI) questionnaire.
The Schirmer I test was performed without anesthesia before injecting the drug into the eye. The standard Schirmer's strips were placed on the side ⅓ of the lower eyelid. After 5 minutes, the strips' wetness was measured by using a millimeter scale of the strips (Eagle Vision, Memphis, TN). Tear strips were cut horizontally and placed in cryovials. They were stored frozen for further analysis. To assess TBUT, one drop of the saline without preservatives was added to a fluorescein strip (Haag-Streit, Koeniz, Switzerland). It was applied to the conjunctiva of the lower eyelid. The patients blinked their eye 3 to 4 times for a few seconds for mixing thoroughly with the dye. Then, the test was conducted by using a slit lamp with cobalt blue light. The time until the defect appeared in the stained tear film was measured and recorded as TBUT. TBUT was measured three times and the score was averaged. OSS scores including conjunctival and corneal staining scores were evaluated according to the SICCA registry ocular examination protocol. First, one drop of 2% sterile fluorescein was put on the conjunctival sac to permeate. After one minute, the corneal staining score was assessed by evaluating fluorescein staining using a slit lamp with cobalt blue filter. The punctate epithelial erosions (PEE) stained with fluorescein were calculated and scored. When there is no PEE, the score is zero. When PEE is 1 to 5, the corneal score is 1; When PEE is 6 to 30, the score is 2; When PEE exceeds 30, the score is 3. Additional points were added when there were one or more fused staining portions, when there was staining in the pupil area of the cornea, or when there were one or more filaments in any part of the cornea. The maximum available score is 6 for each cornea. In order to measure the conjunctival staining score, fluorescein was washed with the saline without preservatives. Then, one drop of 1% Lissamine green dye (Leiter's Pharmacy San Jose, California) was applied to the lower conjunctival fornix of both eyes. […]

[2] = test system: autodigestion marker (ATG5 and LC3B-II) in the conjunctiva; assay: Immunostaining of ATG5 and LC3B-II of conjunctiva before and after corticosteroid treatment; details: SS DE patients after the corticosteroid treatment; representative immunohistochemical images
Method: (§3) IC was carried out 15 minutes after the last stained eye solution was permeated by using a polyethersulfone filter (Suopor 200 membrane, Pall Corporation, Port Washington, New York). The filter paper was cut in half (13×6.5 mm). The sides were attached on the upper side-nasal and the upper side-temporal bulbar conjunctiva, respectively. With 0.05% paraformaldehyde (PFA), the filter attached on the upper side-nasal conjunctiva was transferred into a tube containing 2 ml of PBS for immunostaining. The paper attached on the upper side-temporal conjunctiva was collected from the filter paper up to 3 hours for the RNA extraction.
The IC filter paper having isolated epithelial cells was firmly pressed against a silane-coated slide (Muto Pure Chemicals Co., ltd. Tokyo, Japan). Thus, the epithelial cells were transferred onto the slide. They were used for immunofluorescence staining according to the Baudouins protocol. […]
as §2

LC3B-II mRNA = assay: Real-time PCR of conjunctival epithelial cells (impression cytology) after corticosteroid treatment; details: conjunctival epithelial cells of SS DE patients; level before treatment 12.93±4.44; statistically significantly decreased
Method: as §3
(§4) RNAs were isolated from IC using TRIzol reagent (Gibco-Invitrogen, Grand Island, New York) according to the modified protocol (Barabino S et al., Immune response in the conjunctival epithelium of patients with dry eye. Experimental eye research 2010; 91: 524-9). […] The […] method was used for relative quantification. […]
as §2

ATG5 mRNA = assay: as above; details: conjunctival epithelial cells of SS DE patients; level before treatment 13.16±4.36; statistically significantly decreased
Method: as §3, §4, §2

CC(=O)[C@@]1(O)CC[C@H]2[C@@H]3C[C@H](C)C4=CC(=O)C=C[C@]4(C)[C@@]3(F)[C@@H](O)C[C@@]21C [corticosteroid, fluoromeladone]
ATG5 protein (vs β-actin) in tears after corticosteroid treatment (ATG5 protein): approximately 0.88±0.07 times in change
LC3B-II/I protein ratio in tears after corticosteroid treatment (LC3B-II/I protein ratio): ~1.27±0.08 times in change
Conjunctival staining score (0-6), after treatment ([1]; before treatment 2.13 ± 1.90, P 0.0018): 1.06 ± 1.70
TBUT, after treatment ([1]; before treatment 2.16 ± 2.22, P 0.0007): 3.84 ± 1.90 s
Schirmer value, after treatment ([1]; before treatment 2.34 ± 1.66, P 0.0088): 3.78 ± 2.41 mm
Corneal staining score (0-6), after treatment ([1]; before treatment 2.78 ± 1.10, P <0.0001): 1.59 ± 1.21
Ocular surface staining score (0-12), after treatment ([1]; before treatment 4.84 ± 3.08, P <0.0001): 2.53 ± 2.55
OSDI score (0-100), after treatment ([1]; before treatment 50.19 ± 19.17, P 0.0411): 39.80 ± 17.89
staining spotting pattern of the autodigestion marker in the conjunctiva [2]: normalized
LC3B-II gene encoding level after corticosteroid treatment (LC3B-II mRNA): ~2.57±0.48 times in change
ATG5 gene encoding level after corticosteroid treatment (ATG5 mRNA): approximately 1.23±0.27 times in change
